Experimental data taken from US8269010B2, “3-amino-pyridine derivatives for the treatment of metabolic disorders” (Piramal Healthcare Limited, priority 2006, dated 2012).
“And” between values parts separate entries of the source, which are not always exact repeats. Equal entries are not always repeated.

Tests used:
[1] = system: insulin resistant adipocytes (3T3 L1); assay: In vitro model exhibiting insulin resistance (IR assay): 14C-2-deoxyglucose uptake; type: cell-based; settings: glucose uptake; for fold induction at 10 µM: Mus musculus, dexamethasone-induced insulin resistant 3T3 L1 adipocytes, test compound 10 μM/mL, vehicle = 1.0, cut off 1.50 fold, read-out: Fold activity (fold activity over vehicle); for % of Rosiglitazone (comparison with Rosiglitazone): insulin resistant 3T3 L1 adipocytes, test compound 10 μM vs Rosiglitazone 0.1 μM
Description: The assay was designed as in the reference, British Journal of Pharmacology, 130, 351-58, 2000, the disclosure of which is incorporated by reference for the teaching of the assay. The solution of test compound (10 μM/mL) was prepared in DMSO. […] Differentiation into adipocytes was induced by the known methods as described below. (See, also, J. Biol. […] 3T3 L1 fibroblasts were seeded in 24- or 6-well plates at a density of 0.5−2×10^4 cells/well and were allowed to reach maximal confluency. The confluent fibroblasts were exposed to culture medium for 2 days. […] The mature adipocytes were exposed to dexamethasone, 100 nM added in ethanol, in culture medium and incubated for 2 days. […] The test compound was also present during this period. After 3-4 hours, the medium was aspirated and replaced with Kreb's Ringer phosphate (KRP) buffer at pH 7.4 and with human/porcine insulin, 200 nM. The cells were incubated for 30 minutes at 37° C. […] After exactly 5 minutes, the plates were transferred to ice trays and medium was rapidly aspirated. The cell layer was washed twice with ice-cold phosphate buffered saline, (PBS), pH 7.4. […] Non-specific glucose uptake was assayed in wells exposed to cytochalasin B, inhibitor of glucose transport. […] Statistical analysis was performed using unpaired t-test.

[2] = system: genetically diabetic db/db BL/6J mice; assay: Screening in db/db BL/6J mice: reduction of plasma glucose levels; type: in vivo; settings: 10 days
Description: The protocol was designed as in references. • 1.
The screening of compounds was based on their ability to reduce the plasma glucose levels in genetically diabetic db/db BL/6J mice.
Male db/db mice (obtained from the Animal House of Nicholas Piramal Research Centre, Goregaon, Mumbai, India) were used for this study (body weight in the range of 30-40 g and age is 6-8 weeks) and were kept eight per cage in individually ventilated cages at controlled temperature (22±1° C.) and humidity (45±5%). Food and water were provided ad libitum during their laboratory stay, except for four hours fasting prior to blood sample collection. 12 hours light and dark cycle was followed during the whole study period.
After 4 hours fasting blood samples were collected from mice. Mice showing plasma glucose levels between 300 to 500 mg/dl were divided in groups (8-10 per group) such that the mean plasma glucose levels and variation within the group, for each group, is nearly same. After grouping, mice in respective groups received treatment with 0.5% CMC vehicle, standard compound or test compounds for 10 days.
After 4 hours fasting, mice were anaesthetized using isoflurane (inhalation anesthetic), and blood samples were collected through the retro orbital plexus. Collected blood samples were centrifuged at 7000 rpm for 10 minutes at 4° C.; Separated plasma was used for estimation of plasma glucose using diagnostic kits (Diasys, Germany). Plasma glucose levels of treated groups were normalized with control group using the following formula, which accounted for the changes in control group.
Formula used for normalization was *:{1−[…]}×100.

db/db mice = assay: Evaluation of lipid levels (dyslipidemia) in db/db mice; type: in vivo; settings: oral bid 15 days
Description: The assay was designed as in the reference, Metabolism, 49 (1), 22-31, 2000, the disclosure of which is incorporated by reference for the teaching of the assay. Seven groups of male db/db mice (8 animals per group) were used. […] Body weight was measured daily. On day 15, the animals were deprived of food for 4 hours after the last dose administration. Blood was collected at the end of the 4-hour period using heparinised capillaries by a retro-orbital puncture. Plasma samples were analyzed for glucose, triglyceride, cholesterol, using the autoanalyser.

Mouse PPARγ = biological target: T1, Mouse PPARγ (Mus musculus, UniProt P37238); assay: Mouse PPARγ assay (TransAM PPARγ ELISA, 3T3-L1 fibroblasts); type: cell-based; settings: test compound 50 μM, 72 hrs
T1 construct: endogenous in cells; host or cells: 3T3-L1 fibroblasts
T1 sequence (P37238 1-505): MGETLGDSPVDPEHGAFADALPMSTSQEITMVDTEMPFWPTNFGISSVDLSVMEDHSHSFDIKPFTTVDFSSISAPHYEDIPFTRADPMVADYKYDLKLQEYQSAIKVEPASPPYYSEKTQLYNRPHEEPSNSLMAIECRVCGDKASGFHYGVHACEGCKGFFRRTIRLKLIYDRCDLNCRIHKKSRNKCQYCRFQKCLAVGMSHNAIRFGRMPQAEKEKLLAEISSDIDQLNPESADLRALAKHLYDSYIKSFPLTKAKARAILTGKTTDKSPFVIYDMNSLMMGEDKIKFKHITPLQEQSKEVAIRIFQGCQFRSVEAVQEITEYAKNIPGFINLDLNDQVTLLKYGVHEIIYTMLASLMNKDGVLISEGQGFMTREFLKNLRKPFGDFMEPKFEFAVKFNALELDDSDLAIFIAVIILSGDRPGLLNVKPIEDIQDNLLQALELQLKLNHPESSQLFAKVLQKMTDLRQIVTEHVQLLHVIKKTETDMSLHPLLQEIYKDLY
Description: The assay was designed as in the reference, Blood, 104(5), 1361-8, 2004, the disclosure of which is incorporated by reference for the teaching of the assay.
3T3-L1 fibroblasts were seeded in 6-well plates at a density of 4×10^4 cells/well and cultured in DMEM containing 10% calf serum. After 4-5 days, when the cells become confluent, each of test compound was added (from a 20 mM stock in DMSO) to the final concentration of 50 μM in DMEM supplemented with 10% FCS. […] The plates were incubated for 72 hrs at 37° C. in a CO2 incubator with fresh medium containing test substances added after first 48 hrs. After 72 hrs, the medium was removed; the cell layer was washed and processed for the PPARγ assay as per the instruction of the manufacturer (Active Motif, North America, California, USA). PPARγ activation was determined using 96-well ELISA assay as per the instruction manual (TransAM PPARγ. Active Motif, Cat 0.40196). Assay Readout was absorbance output from spectrophotometer for the mouse PPARγ assay. Luminescence data output was recorded for the human PPARγ assay.

Human PPARγ = biological target: T2, Human PPARγ (Homo sapiens, UniProt P37231); assay: Human PPARγ transactivation assay (luciferase reporter, HEK293 cells); type: cell-based; settings: 48 hours
T2 construct: Human full length PPARγ cDNA was cloned into pSG5 expression vector; expressed in transfected cells; host or cells: HEK293 cells
T2 sequence (P37231 1-505): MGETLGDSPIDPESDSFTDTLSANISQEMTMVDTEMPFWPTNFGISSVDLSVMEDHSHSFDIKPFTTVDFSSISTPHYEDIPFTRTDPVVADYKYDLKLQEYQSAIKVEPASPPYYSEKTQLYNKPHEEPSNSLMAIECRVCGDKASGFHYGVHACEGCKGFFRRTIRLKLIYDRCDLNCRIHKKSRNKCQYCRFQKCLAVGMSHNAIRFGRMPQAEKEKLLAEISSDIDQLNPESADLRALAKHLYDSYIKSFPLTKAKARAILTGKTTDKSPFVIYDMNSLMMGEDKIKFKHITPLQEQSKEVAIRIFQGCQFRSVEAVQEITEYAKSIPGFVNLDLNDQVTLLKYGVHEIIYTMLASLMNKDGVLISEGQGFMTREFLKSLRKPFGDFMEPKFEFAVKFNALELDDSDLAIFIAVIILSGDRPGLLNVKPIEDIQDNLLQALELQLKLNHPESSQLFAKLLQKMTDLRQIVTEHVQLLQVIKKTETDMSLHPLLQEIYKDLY
Description: The assay was designed as in the reference, Biochem. Biophys. Res. Comm. 175:865-871, 1991, the disclosure of which is incorporated by reference for the teaching of the assay. Human PPARγ activity was evaluated by transactivation using a luciferase reporter gene. The pBL-TK-luciferase reporter plasmid AOX-3×PPRE-TK-LUC contains three copies of the rat acyl CoA oxidase PPRE cloned upstream of the minimal herpes simplex virus thymidine kinase (TK) promoter. Human full length PPARγ cDNA was cloned into pSG5 expression vector (Stratagene, Lo Jolla, Calif.).
HEK293 cells were seeded in 24 well plates and grown in DMEM supplemented with 10% (v/v) FCS. After 24 hours, they were transfected with 100 ng of hPPARγ receptor and 300 ng of AOX-3×PPRE-LUC reporter construct per well using Fugen 6 transfection reagent (Roche, Indianapolis, Ind.). […] The control was 0.1% DMSO. After 48 hours, transactivation activity was determined by luciferase assay using Steady Glow reagent (Promega, Madison, Wis.).

Row | PPARγ activity (% of rosiglitazone) (Mouse PPARγ) | melting point | PPARγ activity (% of rosiglitazone) (Human PPARγ) | Compound | fold induction at 10 µM [1] | % of Rosiglitazone (comparison with Rosiglitazone) [1] | Normalization with control (plasma glucose) ([2]; 150 mpk od) | lowering lipid levels compared with Rosiglitazone (db/db mice) | reduction in cholesterol levels (db/db mice; doses higher than 50 mpk) | Normalization with control (plasma glucose) ([2]; 100 mpk bid) | Normalization with control (plasma glucose) ([2]; Rosiglitazone 5 mpk bid) | Normalization with control (plasma glucose) ([2]; Rosiglitazone 10 mpk od) | decrease in plasma triglyceride levels (db/db mice; Rosiglitazone 5 mpk) | reduction in cholesterol levels (db/db mice; Rosiglitazone 5 mpk)
1 | 12.4% | 203 to 205 °C | 23% | O=S(=O)(Nc1cnc(Oc2cc3ccccc3cn2)c(Cl)c1)c1ccc(Cl)cc1Cl [Example 1, 2,4-Dichloro-N-(5-chloro-6-(isoquinolin-3-yloxy)pyridin-3-yl)benzenesulfonamide] | 2.41 ± 0.06 | 78.75 ± 3.55% | 43.2 ± 15.7 | as efficacious as Rosiglitazone | 26% | – | – | – | – | –
2 | – | – | 19.3% | COc1ccc(S(=O)(=O)Nc2cnc(Oc3cnc4ccccc4c3)c(Cl)c2)cc1 [Example 26, N-(5-Chloro-6-(quinolin-3-yloxy)pyridin-3-yl)-4-methoxybenzenesulfonamide] | 2.19 ± 0.09 | 66.48 ± 5.26% | – | – | – | 41.90 ± 3.84 | – | – | – | –
3 | – | – | – | CN(CCOc1ccc(CC2SC(=O)NC2=O)cc1)c1ccccn1 (stereo not shown) [Rosiglitazone, reference compound] | – | – | – | – | – | – | 54.52 ± 4.92 and 107.9 ± 15.1 and 83.6 ± 12.8 | 93.8 ± 22.7 and 55.0 ± 11.4 | 40% | 27%
